Experimental data published in paper PMC10974732 (2024).
Values after ≈ are worked out from the molar mass of the structure shown.

System: 2B.N2A9 (DNA, aptamer) CATCTGCAGTGTGGCACCATGGGCATTGGGGGGCGAGGGTGGTTGGAGCGTTTGTGTGCGACGTGCTGAGCGTGAATTCGC
Experiment: indirect competitive ELOSA (SA-HRP/TMB)
Conditions: 37 °C, 1 h; 50 nM aptamer; competes with immobilised Neu5Gc-BSA (1 μg/mL coating)

Row | IC50 | SMILES
1 | 467.74 ng/mL (≈ 1.51 µM) | CC(=O)N[C@H]1[C@H]([C@H](O)[C@H](O)CO)OC(O)(C(=O)O)C[C@@H]1O (stereo partly shown)
2 | 9.35 ng/mL (≈ 0.0287 µM) | O=C(CO)N[C@H]1[C@H]([C@H](O)[C@H](O)CO)OC(O)(C(=O)O)C[C@@H]1O (stereo partly shown)
3 | 1659.58 ng/mL (≈ 6.19 µM) | O=C(O)C1(O)C[C@H](O)[C@@H](O)[C@H]([C@H](O)[C@H](O)CO)O1 (stereo partly shown)

The next lines start with the compound.

Row | SMILES | IC50
4 | CC(=O)N[C@@H]1C(O)O[C@H](CO)[C@@H](O)[C@@H]1O (stereo partly shown) | 36,307.8 ng/mL
5 | OC[C@H]1OC(O)[C@H](O)[C@@H](O)[C@@H]1O (stereo partly shown) | > 93,500.00 ng/mL
6 | OC[C@H]1O[C@@](CO)(O[C@H]2O[C@H](CO)[C@@H](O)[C@H](O)[C@H]2O)[C@@H](O)[C@@H]1O | > 93,500.00 ng/mL
7 | OC[C@H]1O[C@H](O[C@H]2[C@H](O)[C@@H](O)C(O)O[C@@H]2CO)[C@H](O)[C@@H](O)[C@@H]1O (stereo partly shown) | > 93,500.00 ng/mL
